Data set [1] in a line: Transcellular transport test using Caco2 cell. The class given is in vitro ADME. The note with it: human, Caco-2; Caco2 monolayer, A-to-B, 10 μM compound, pH 7.4, 90 minutes. As to the method: Caco2 cells (purchased from ATCC) were cultured in DMEM medium (Thermo Fisher Scientific, Inc., 11965) containing 10% FBS (Thermo Fisher Scientific, Inc., 10082) and 1% penicillin/streptomycin/amphotericin B (Thermo Fisher Scientific, Inc., 15240). A transcellular transport test was carried out in accordance with MultiScreen Caco2 Drug Transport Assembly in a 96-well system (Application Note AN1727EN, MultiScreen Caco-2 Assay System, Merck) by partially modifying it. The Caco2 cells were inoculated at a cell density of 4×10^4 cells/well onto a micropore polycarbonate insert of a 96-well plate (Merck, Millcell-96 culture insert plate 0.4 μm pore size, well membrane area=0.11 cm^2, PSHT004S5) and cultured for 20 to 22 days, and the resulting monolayer was used in the transcellular transport test. The medium of the inoculated cells was replaced with a fresh one every 3 to 4 days.
Apical-to-basolateral (A-to-B) transport in the Caco2 cell monolayer membrane was performed by using HBSS (Thermo Fisher Scientific, Inc., 14025) medium (pH=7.4) containing 20 mM HEPES (Thermo Fisher Scientific, Inc., 15630), and adding HEPES-containing HBSS medium containing 10 μM compound (a 10 mM solution of the compound in DMSO was added at a 1000-fold dilution; final DMSO concentration: 0.1%) at 75 μL/well to the apical side and HEPES-containing HBSS medium supplemented with no compound at 250 μL/well to the basolateral side, followed by culture at 37° C. for 90 minutes. After culture, a 100 μL aliquot was collected from the basolateral side, and the concentration of a permeated compound was measured by LC-MS/MS under measurement conditions mentioned later. Papp (apparent permeability; cm/sec) was calculated from the determined concentration. Papp was determined according to the expression given below by calculating the slope (dA/dt; nmol/sec) of a straight line drawn between two points 0 minutes and zero amount of the compound in a graph plotted with an assay time (90 min) on the abscissa against the amount of the compound in the solution on the permeated side on the ordinate. As for an assay concentration, the concentration in the compound in the HEPES-containing HBSS medium containing the added compound was measured by UV-HPLC under measurement conditions mentioned later.
Papp (cm/sec)=C0×S×(dA/dt)
C0: assay concentration, S: plate membrane area=0.11 cm^2

In the next data set the target is T1, αvβ1 (UniProt G3HZ55+P06756).
T1 construct: expressed in transfected cells; host or cells: CHO cells deficient in α5 gene, transfected with αv gene
T1 sequence (P06756 31-889 limits assumed): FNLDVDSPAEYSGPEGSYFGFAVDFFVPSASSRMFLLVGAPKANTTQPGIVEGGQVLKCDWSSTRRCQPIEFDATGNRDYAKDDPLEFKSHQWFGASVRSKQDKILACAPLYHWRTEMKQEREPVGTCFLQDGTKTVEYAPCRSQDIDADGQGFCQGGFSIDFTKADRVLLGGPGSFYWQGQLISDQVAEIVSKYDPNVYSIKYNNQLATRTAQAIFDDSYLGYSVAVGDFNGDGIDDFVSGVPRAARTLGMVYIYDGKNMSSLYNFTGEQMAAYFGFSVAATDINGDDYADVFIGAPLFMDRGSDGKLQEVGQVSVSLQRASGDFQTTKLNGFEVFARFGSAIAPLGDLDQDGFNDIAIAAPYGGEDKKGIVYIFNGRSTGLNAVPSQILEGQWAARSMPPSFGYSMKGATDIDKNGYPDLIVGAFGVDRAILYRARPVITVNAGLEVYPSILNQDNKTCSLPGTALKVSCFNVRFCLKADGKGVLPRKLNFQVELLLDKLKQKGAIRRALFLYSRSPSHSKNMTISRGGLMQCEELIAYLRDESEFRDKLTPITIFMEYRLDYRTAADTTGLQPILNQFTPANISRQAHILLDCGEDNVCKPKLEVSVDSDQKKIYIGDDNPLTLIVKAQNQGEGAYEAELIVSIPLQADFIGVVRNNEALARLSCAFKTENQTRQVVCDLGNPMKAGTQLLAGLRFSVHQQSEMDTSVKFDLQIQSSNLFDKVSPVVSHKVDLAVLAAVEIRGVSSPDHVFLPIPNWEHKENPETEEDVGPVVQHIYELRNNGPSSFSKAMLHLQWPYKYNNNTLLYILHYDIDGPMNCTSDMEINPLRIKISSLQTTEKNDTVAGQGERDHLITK
T1 sequence (P06756 891-1048 limits assumed): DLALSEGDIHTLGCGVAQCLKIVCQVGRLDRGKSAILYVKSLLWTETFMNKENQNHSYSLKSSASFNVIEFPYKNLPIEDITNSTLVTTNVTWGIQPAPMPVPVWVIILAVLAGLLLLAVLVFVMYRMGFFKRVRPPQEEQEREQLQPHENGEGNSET
T1 sequence (G3HZ55 21-798): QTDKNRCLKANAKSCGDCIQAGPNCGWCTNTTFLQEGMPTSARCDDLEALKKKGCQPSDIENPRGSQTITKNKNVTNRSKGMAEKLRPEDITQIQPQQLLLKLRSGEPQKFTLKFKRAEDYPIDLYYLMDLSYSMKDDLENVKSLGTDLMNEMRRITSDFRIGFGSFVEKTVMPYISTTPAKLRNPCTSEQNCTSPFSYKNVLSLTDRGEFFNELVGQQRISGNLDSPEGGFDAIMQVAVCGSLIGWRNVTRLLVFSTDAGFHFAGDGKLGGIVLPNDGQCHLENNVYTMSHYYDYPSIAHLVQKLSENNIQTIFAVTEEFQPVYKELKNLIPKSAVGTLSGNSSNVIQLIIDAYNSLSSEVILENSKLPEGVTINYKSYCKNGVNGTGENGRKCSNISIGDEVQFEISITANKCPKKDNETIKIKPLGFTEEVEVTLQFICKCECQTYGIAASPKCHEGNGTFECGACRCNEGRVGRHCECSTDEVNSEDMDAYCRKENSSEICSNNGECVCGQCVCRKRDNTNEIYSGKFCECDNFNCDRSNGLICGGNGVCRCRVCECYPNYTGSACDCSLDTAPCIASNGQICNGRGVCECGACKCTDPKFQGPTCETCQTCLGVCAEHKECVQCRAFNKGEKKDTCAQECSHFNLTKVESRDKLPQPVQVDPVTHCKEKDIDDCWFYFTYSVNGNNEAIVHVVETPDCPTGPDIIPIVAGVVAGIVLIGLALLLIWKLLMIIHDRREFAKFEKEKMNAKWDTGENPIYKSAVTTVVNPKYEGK
The experiment in a line: αvβ1 cell adhesion inhibition test (αv-transfected CHO cells on human fibronectin). The class given is cell-based. Particulars: human fibronectin coating, 1 mM MnCl2, 1 hour, read-out: IC50 (rate of inhibition of cell adhesion, αvβ1). As to the method: Test Example 1 was performed by partially modifying the method of Reed et al. (Sci Transl Med., 7 (288), 288ra79, 2015).
Human fibronectin (manufactured by Sigma-Aldrich Co. LLC, F0895) was prepared at 1.25 μg/mL with phosphate buffered saline (PBS), dispensed at 100 μL/well to a 96-well plate, and left standing overnight. The plate was washed with Hanks' balanced salt solution (HBSS), then subjected to blocking treatment with Dulbecco's modified Eagle medium (DMEM) containing 1% bovine serum-derived albumin (BSA) (FUJIFILM Wako Pure Chemical Corp., for cell culture, 017-22231), and used as a coated plate in the adhesion test.
αv-transfected cells (CHO cells deficient in α5 gene and transfected with αv gene) cultured in Ham's F-12 medium (FUJIFILM Wako Pure Chemical Corp., 087-08335) containing 10% fetal bovine serum (FBS), 1% penicillin/streptomycin/amphotericin B (manufactured by Thermo Fisher Scientific, Inc., 15240), 1 mM GlutaMAX Supplement (manufactured by Thermo Fisher Scientific, Inc., 35050), and 400 μg/mL hygromycin B (FUJIFILM Wako Pure Chemical Corp., 080-07683) were recovered and suspended in DMEM containing 1 mM MnCl2 (manufactured by Sigma-Aldrich Co. LLC, M1787) to prepare a cell suspension. A test compound dissolved in DMSO was added thereto.
The cell suspension of 1×10^6 cells/mL containing the test compound was added at 100 μL/well to the coated plate and left standing for 1 hour in a 5% CO2 incubator (37° C.). One hour later, the supernatant was removed, and the plate was washed with HBSS. The cells that adhered to each well in the plate were stained with crystal violet, and the cells were lysed, followed by absorbance measurement. Inhibition without substrate coating was defined as 100% inhibition, and inhibition when DMSO was added instead of the test compound was defined as 0% inhibition. The rate of inhibition of cell adhesion by the test compound was calculated according to the following expression.
Rate of inhibition of cell adhesion (%)=[1−{(Absorbance in the case of adding the test compound)−(Absorbance without substrate coating)}/{(Absorbance in the case of adding DMSO)−(Absorbance without substrate coating)}]×100
An IC50 value was calculated from the rate of inhibition of cell adhesion by the test compound. A: IC50<3 nM, B: 3 nM≤IC50<10 nM, C: 10 nM≤IC50<30 nM, D: 30 nM≤IC50<100 nM, or E: IC50≥100 nM.

Here are results for 15 compounds from patent publication US20230192661A1, “1, 4, 5, 6-TETRAHYDROPYRIMIDINE-2-AMINE DERIVATIVE” (UBE Corporation, priority 2020, published 2023).

pIC50: −log10 of the molar value.

`O=C(O)C[C@H](NC(=O)CNC(=O)c1cc(NC2=NCC(F)CN2)c2cn[nH]c2c1)c1cccc(-n2cccn2)c1` (stereo partly drawn) [Example 43-(b), (3S)-3-(3-(1H-pyrazol-1-yl)phenyl)-3-(2-(4-((5-fluoro-1,4,5,6-tetrahydropyrimidin-2-yl)amino)-1H-indazole-6-carboxamido)acetamido)propanoic acid]: the apical-to-basolateral permeability (Papp A→B) at 90 min, 10 μM in data set [1] is above 1 ×10⁻⁶ cm/s. Besides, the pIC50 on αvβ1 is 8.00 to 8.52.

For `O=C(O)C[C@H](NC(=O)CNC(=O)c1cc(NC2=NCC(F)CN2)c2cn[nH]c2c1)c1cccc(C(F)(F)F)c1Cl` (stereo partly drawn) [Example 10-(b), (3S)-3-(2-chloro-3-(trifluoromethyl)phenyl)-3-(2-(4-((5-fluoro-1,4,5,6-tetrahydropyrimidin-2-yl)amino)-1H-indazole-6-carboxamido)acetamido)propanoic acid], the Papp A→B at 90 min, 10 μM in data set [1] was above 1 ×10⁻⁶ cm/s. The pIC50 on αvβ1 was at most 7.00.

`O=C(O)C[C@H](NC(=O)CNC(=O)c1cc(NC2=NCC(F)CN2)c2cn[nH]c2c1)c1cccc(OC(F)F)c1` (stereo partly drawn) [Example 37-(b), (3S)-3-(3-(difluoromethoxy)phenyl)-3-(2-(4-((5-fluoro-1,4,5,6-tetrahydropyrimidin-2-yl)amino)-1H-indazole-6-carboxamido)acetamido)propanoic acid]: in data set [1], the Papp A→B at 90 min, 10 μM is above 1 ×10⁻⁶ cm/s. Also, the negative-log IC50 (pIC50) at αvβ1 is 8.00 to 8.52.

In data set [1], `O=C(O)C[C@H](NC(=O)CNC(=O)c1cc(NC2=NCC(F)CN2)c2cn[nH]c2c1)c1cc(Cl)cc(I)c1` (stereo partly drawn) [Example 21-(b), (3S)-3-(3-chloro-5-iodophenyl)-3-(2-(4-((5-fluoro-1,4,5,6-tetrahydropyrimidin-2-yl)amino)-1H-indazole-6-carboxamido)acetamido)propanoic acid] registered an apparent permeability from apical to basolateral (Papp A→B) at 90 min, 10 μM above 1 ×10⁻⁶ cm/s. Further, on αvβ1, the pIC50 was above 8.52.

In the case of `O=C(O)C[C@H](NC(=O)CNC(=O)c1cc(NC2=NCC(F)CN2)c2cn[nH]c2c1)c1cc(Cl)cc(OC(F)(F)F)c1` (stereo partly drawn) [Example 31-(b), (3S)-3-(3-chloro-5-(trifluoromethoxy)phenyl)-3-(2-(4-((5-fluoro-1,4,5,6-tetrahydropyrimidin-2-yl)amino)-1H-indazole-6-carboxamido)acetamido)propanoic acid], the Papp A→B at 90 min, 10 μM in data set [1] is above 1 ×10⁻⁶ cm/s. On αvβ1, the pIC50 is 8.00 to 8.52.

`O=C(O)C[C@H](NC(=O)CNC(=O)c1cc(NC2=NCC(F)CN2)c2cn[nH]c2c1)c1cc(Br)cc(Br)c1` (stereo partly drawn) [Example 19-(b), (3S)-3-(3,5-dibromophenyl)-3-(2-(4-((5-fluoro-1,4,5,6-tetrahydropyrimidin-2-yl)amino)-1H-indazole-6-carboxamido)acetamido)propanoic acid] had a Papp A→B at 90 min, 10 μM in data set [1] above 1 ×10⁻⁶ cm/s. In addition, the pIC50 on αvβ1 is above 8.52.

`O=C(O)C[C@H](NC(=O)CNC(=O)c1cc(NC2=NCC(F)CN2)c2cn[nH]c2c1)c1cc(F)cc(C(F)(F)F)c1` (stereo partly drawn) [Example 6-(b), (3S)-3-(2-(4-((5-fluoro-1,4,5,6-tetrahydropyrimidin-2-yl)amino)-1H-indazole-6-carboxamido)acetamido)-3-(3-fluoro-5-(trifluoromethyl)phenyl)propanoic acid]: in data set [1], the Papp A→B at 90 min, 10 μM was above 1 ×10⁻⁶ cm/s. Further, the pIC50 at αvβ1 was above 8.52.

For `O=C(O)C[C@H](NC(=O)CNC(=O)c1cc(NC2=NCC(F)CN2)c2cn[nH]c2c1)c1cccc(Cl)c1` (stereo partly drawn) [Example 41-(b), (3S)-3-(3-chlorophenyl)-3-(2-(4-((5-fluoro-1,4,5,6-tetrahydropyrimidin-2-yl)amino)-1H-indazole-6-carboxamido)acetamido)propanoic acid], the Papp A→B at 90 min, 10 μM in data set [1] is above 1 ×10⁻⁶ cm/s. On αvβ1, the pIC50 is 8.00 to 8.52.

In data set [1], `O=C(O)C[C@H](NC(=O)CNC(=O)c1cc(NC2=NCC(F)CN2)c2cn[nH]c2c1)c1cc(I)cc(C(F)(F)F)c1` (stereo partly drawn) [Example 3-(b), (3S)-3-(2-(4-((5-fluoro-1,4,5,6-tetrahydropyrimidin-2-yl)amino)-1H-indazole-6-carboxamido)acetamido)-3-(3-iodo-5-(trifluoromethyl)phenyl)propanoic acid] yielded a Papp A→B at 90 min, 10 μM above 1 ×10⁻⁶ cm/s. Also, at αvβ1, the pIC50 is 8.00 to 8.52.

As to `O=C(O)C[C@H](NC(=O)CNC(=O)c1cc(NC2=NCC(F)CN2)c2cn[nH]c2c1)c1ccc(F)c(OC(F)(F)F)c1` (stereo partly drawn) [Example 34-(b), (3S)-3-(2-(4-((5-fluoro-1,4,5,6-tetrahydropyrimidin-2-yl)amino)-1H-indazole-6-carboxamido)acetamido)-3-(4-fluoro-3-(trifluoromethoxy)phenyl)propanoic acid], in data set [1], the Papp A→B at 90 min, 10 μM was above 1 ×10⁻⁶ cm/s. In addition, the negative-log IC50 (pIC50) on αvβ1 is above 8.52.

`O=C(O)C[C@H](NC(=O)CNC(=O)c1cc(NC2=NCC(F)CN2)c2cn[nH]c2c1)c1cccc(C2CC2)c1` (stereo partly drawn) [Example 39-(b), (3S)-3-(3-cyclopropylphenyl)-3-(2-(4-((5-fluoro-1,4,5,6-tetrahydropyrimidin-2-yl)amino)-1H-indazole-6-carboxamido)acetamido)propanoic acid]: the apical-to-basolateral permeability (Papp A→B) at 90 min, 10 μM in data set [1] was above 1 ×10⁻⁶ cm/s. At αvβ1, the negative logarithm of the IC50 (pIC50) was above 8.52.

Take `COc1ccc([C@H](CC(=O)O)NC(=O)CNC(=O)c2cc(NC3=NCC(F)CN3)c3cn[nH]c3c2)cc1Br` (stereo partly drawn) [Example 16-(b), (3S)-3-(3-bromo-4-methoxyphenyl)-3-(2-(4-((5-fluoro-1,4,5,6-tetrahydropyrimidin-2-yl)amino)-1H-indazole-6-carboxamido)acetamido)propanoic acid]: the apparent permeability from apical to basolateral (Papp A→B) at 90 min, 10 μM in data set [1] was above 1 ×10⁻⁶ cm/s. Further, the pIC50 at αvβ1 is above 8.52.

The compound `O=C(O)C[C@H](NC(=O)CNC(=O)c1cc(NC2=NCC(F)CN2)c2cn[nH]c2c1)c1cccc(C(F)(F)F)c1F` (stereo partly drawn) [Example 9-(b), (3S)-3-(2-(4-((5-fluoro-1,4,5,6-tetrahydropyrimidin-2-yl)amino)-1H-indazole-6-carboxamido)acetamido)-3-(2-fluoro-3-(trifluoromethyl)phenyl)propanoic acid] displayed a Papp A→B at 90 min, 10 μM in data set [1] above 1 ×10⁻⁶ cm/s. On αvβ1, the negative-log IC50 (pIC50) was 8.00 to 8.52.

Compound `O=C(O)C[C@H](NC(=O)CNC(=O)c1cc(NC2=NCC(F)CN2)c2cn[nH]c2c1)c1ccc(C(F)(F)F)cc1` (stereo partly drawn) [Example 47-(b), (3S)-3-(2-(4-((5-fluoro-1,4,5,6-tetrahydropyrimidin-2-yl)amino)-1H-indazole-6-carboxamido)acetamido)-3-(4-(trifluoromethyl)phenyl)propanoic acid] had an apparent permeability from apical to basolateral (Papp A→B) at 90 min, 10 μM in data set [1] above 1 ×10⁻⁶ cm/s. Moreover, on αvβ1, the negative-log IC50 (pIC50) is 8.00 to 8.52.

Consider `O=C(O)C[C@H](NC(=O)CNC(=O)c1cc(NC2=NCC(F)CN2)c2cn[nH]c2c1)c1cc(OC(F)F)cc(-n2cccn2)c1` (stereo partly drawn) [Example 29-(b), (3S)-3-(3-(difluoromethoxy)-5-(1H-pyrazol-1-yl)phenyl)-3-(2-(4-((5-fluoro-1,4,5,6-tetrahydropyrimidin-2-yl)amino)-1H-indazole-6-carboxamido)acetamido)propanoic acid], for which the Papp A→B at 90 min, 10 μM in data set [1] was in the range of 0.1 to 0.5 ×10⁻⁶ cm/s. Also, at αvβ1, the pIC50 was above 8.52.

As a reminder, the Papp A→B is the apparent permeability from the apical to the basolateral side of a cell layer. A lower Papp A→B goes with poor permeation. A word on the pIC50: it is the IC50 on a negative log10 scale, so that one unit is a factor of ten.
